Patent publication US12534444B2, “Treatment of cancer/inhibition of metastasis” (Celex Oncology Innovations Limited, priority 2010, dated 2026)

What was measured:
Assay type in all cases: cell-based, human
MDA-MB-231 cells [1] = assay: Transverse migration assay (Transwell)
Experimental: This assay was used to represent the ability of cells to migrate as they intra/extravasate. […] The insert 602 has a migration filter membrane 605 in its base with 8 μm pores 606 extending therethrough.
Cells 607 were plated at a density of 2×10^4/ml on the filter membrane 605 and placed under a growth medium 608 containing 1% foetal bovine serum (FBS). A chemotactic gradient was created across the filter membrane 605 by placing growth medium 609 containing 10% FBS in the lower section 604 of the chamber.
Cells were allowed to migrate across the filter membrane 605 over a period of 24 hours, cells migrating and adhering to the underside of the filter membrane 605.
At the end of each assay, non-migrated cells were removed from the upper surface of the insert 602 with two different swabs
(§1) The number of cells migrating to the underside of the insert 602 was determined using crystal violet staining. Migrated cells were fixed for 15 minutes with ice-cold methanol. Then 0.5% crystal violet (in 25% methanol) was added for 15 minutes. The inserts were swabbed again and then washed in water and allowed to dry. Cells were then counted using twelve separate fields of view per insert (×200 magnification).
(§2) With the exception of single cell adhesion tests, which are discussed in the following paragraph, experiments were carried out under either; • (i) normal normoxic conditions ([…], 5% carbon dioxide), or • (ii) following 24 hours hypoxic pre-treatment (2% O2, 5% CO2, 93% N2) continued during the assays.

MDA-MB-231 cells [2] = assay: Cell growth (proliferation) assay (MTT); settings: for PROLIFERATION (24 hours) / growth (number of cells): Normoxia; for growth (number of cells): 48 hours
Experimental: Cells were plated at 2×10^4 cells/ml in 24-well plates (Becton-Dickinson) and allowed to settle overnight. The cells were then treated for the required time of incubation (24 hours+), with medium changes every 24 hours. At the end of the treatment, the medium was removed, and this was followed by the colorimetric 3-[4,5-dimethylthiazol-2-yl]-2,5-diphenyltetrazolium bromide (MTT) assay (Grimes et al., 1995). Briefly, 0.1 ml MTT (5 mg/ml made up in the growth medium) and 0.4 ml growth medium was added in each well and the plate was incubated for 3-4 hours at 37° C. The medium was then removed from the chambers and replaced with 0.5 ml dimethyl sulfoxide (DMSO) and 0.063 ml glycine buffer (0.1 M glycine and 0.1 M NaCl; pH 10.5). Absorbance at 570 nm was determined 15 minutes after the addition of the glycine buffer. Results were calculated as means of nine repeats of each of the treatment vs. control spectrophotometer readings from individual invasion wells.
as §2

MDA-MB-231 cells [3] = assay: Invasion assay (Matrigel Transwell)
Source text: This assay is an extension of the transverse migration assay described above. To “invade”, the cells need both (i) to move as in the transverse migration assay and (ii) secrete a proteolytic enzyme to digest their surroundings. The ability of cells to invade neighbouring tissues by enzyme secretion was therefore assessed by using a layer of Matrigel™ (BD Biosciences) spread across the porous membrane of a Transwell® insert.
FIG. 7 is a schematic side sectional view of an invasion chamber 701 having a Transwell® insert 702 separating the chamber into upper 703 and lower 704 sections. The insert 702 has a migration filter membrane 705 in its base with 8 μm pores 706 extending therethrough. A layer 707 of Matrigel™ is shown coating the filter membrane 705.
Cells 708 were plated at a density of 2×10^4/ml onto the Matrigel™ layer 707 in 24-well plates (Becton-Dickinson) according to the manufacturers' instructions. 50 μl Matrigel™ was seeded at a 1:7 dilution (10 mg/ml stock) onto the inserts and left overnight. Prior to seeding with the cells the Matrigel™ was rehydrated using medium with no additions. This medium was removed prior to seeding the cells.
Cells were plated in a 1-5% FBS chemotactic gradient overnight (12 hours). The nutrient concentration in the medium 709 in the upper section 703 of the chamber was less than the concentration of nutrient in the medium 710 in the lower section 704 to induced movement of the cells through the Matrigel™ layer 707 and through the pores 706 to the underside of the filter membrane 705. At the end of each assay, non-invaded/non-migrated cells were removed from the upper surface of the insert 702 with two different swabs.
as §1, with “invading” for “migrating”, “702” for “602”, “Invaded” for “Migrated”, “magnification). If the difference in the average number of cells invading the two control inserts was more than 40%, the experiment was rejected.” for “magnification).”
as §2

MDA-MB-231 cells [4] = assay: Cell viability assay (trypan blue); settings: Normoxia, 48 hours
Experimental: Cells were seeded at a density of 5×10^4 cells/ml in 35 mm Falcon tissue culture dishes. After treatment with a given drug, the medium was removed and replaced with 800 μl of growth medium and 200 μl 0.4% trypan blue (Sigma, Dorset, UK) and incubated for 10 minutes in the incubator. The trypan blue was removed and the cells were washed once with 3 ml growth medium. For each treatment, cells from 30 random fields of view were counted under 100× magnification. The number of dead cells, stained blue, was counted in each field of view. The data were expressed as percentages of living cells out of the total number of cells in given fields of view. The percentages were averaged and differences between control and treatment were compared from at least three independent experiments.
as §2

[5] = Hypoxia, 10 μM, listed as RANOLAZINE
[6] = Normoxia, 10 μM, listed as RANOLAZINE

## COc1ccccc1OCC(O)CN1CCN(CC(=O)Nc2c(C)cccc2C)CC1 (stereo not shown) [ranolazine]
MDA-MB-231 cells [1]; Hypoxia, 1 μM
  TRANSVERSE MIGRATION: reduced the transverse migration of the cells in a statistically significant way
MDA-MB-231 cells [1]; Hypoxia, 1 μM, listed as RANOLAZINE
  TRANSVERSE MIGRATION: decreased
MDA-MB-231 cells [1]; Hypoxia, 10 μM
  TRANSVERSE MIGRATION: reduced the transverse migration of the cells in a statistically significant way
MDA-MB-231 cells [1]; [5]
  TRANSVERSE MIGRATION: decreased
MDA-MB-231 cells [1]; Hypoxia, 100 μM
  TRANSVERSE MIGRATION: the reduction was not statistically significant
MDA-MB-231 cells [1]; Hypoxia, 100 μM, listed as RANOLAZINE
  TRANSVERSE MIGRATION: decreased
MDA-MB-231 cells [1]; Normoxia, 1 μM
  TRANSVERSE MIGRATION: reduced the transverse migration of the cells only slightly
MDA-MB-231 cells [1]; Normoxia, 1 μM, listed as RANOLAZINE
  TRANSVERSE MIGRATION: increased
MDA-MB-231 cells [1]; Normoxia, 10 μM
  TRANSVERSE MIGRATION: reduced the transverse migration of the cells only slightly
MDA-MB-231 cells [1]; [6]
  TRANSVERSE MIGRATION: decreased
MDA-MB-231 cells [1]; Normoxia, 100 μM
  TRANSVERSE MIGRATION: reduced the transverse migration of the cells only slightly
MDA-MB-231 cells [1]; Normoxia, 100 μM, listed as RANOLAZINE
  TRANSVERSE MIGRATION: decreased
MDA-MB-231 cells [2]; Hypoxia, same concentrations (1 μM, 10 μM and 100 μM), results not shown
  growth: did not affect the growth
MDA-MB-231 cells [2]; 1 μM
  PROLIFERATION (24 hours): no significant difference
  growth (number of cells): no statistically significant difference
MDA-MB-231 cells [2]; 1 μM, listed as RANOLAZINE
  PROLIFERATION (24 hours): no effect
MDA-MB-231 cells [2]; 10 μM
  PROLIFERATION (24 hours): no significant difference
  growth (number of cells): no statistically significant difference
MDA-MB-231 cells [2]; 10 μM, listed as RANOLAZINE
  PROLIFERATION (24 hours): no effect
MDA-MB-231 cells [2]; 100 μM
  PROLIFERATION (24 hours): no significant difference
  growth (number of cells): no statistically significant difference
MDA-MB-231 cells [2]; 100 μM, listed as RANOLAZINE
  PROLIFERATION (24 hours): no effect
MDA-MB-231 cells [3]; Hypoxia, 5 μM
  INVASIVENESS (no pretreatment): not statistically significant
MDA-MB-231 cells [3]; Hypoxia, 5 μM, 72 hours pretreatment
  INVASIVENESS (pretreatment): very significant reduction
MDA-MB-231 cells [3]; Hypoxia, 5 μM, 72 hours pretreatment, listed as RANOLAZINE
  INVASIVENESS (pretreatment): decreased
MDA-MB-231 cells [3]; Hypoxia, 5 μM, listed as RANOLAZINE
  INVASIVENESS (no pretreatment): no benefit
MDA-MB-231 cells [3]; Hypoxia, 10 μM
  INVASIVENESS (no pretreatment): not statistically significant
MDA-MB-231 cells [3]; [5]
  INVASIVENESS (no pretreatment): decreased
MDA-MB-231 cells [3]; Hypoxia, 20 μM
  INVASIVENESS (no pretreatment): reduced the migration of the cells
MDA-MB-231 cells [3]; Hypoxia, 20 μM, listed as RANOLAZINE
  INVASIVENESS (no pretreatment): no benefit
MDA-MB-231 cells [3]; Hypoxia, 25 μM
  INVASIVENESS (no pretreatment): less invasive than untreated cells in a statistically significant way
MDA-MB-231 cells [3]; Hypoxia, 25 μM, 48 hours
  INVASIVENESS (pretreatment): decreased
MDA-MB-231 cells [3]; Hypoxia, 25 μM, 72 hours
  INVASIVENESS (pretreatment): decreased
MDA-MB-231 cells [3]; Hypoxia, 25 μM, listed as RANOLAZINE
  INVASIVENESS (no pretreatment): decreased
MDA-MB-231 cells [3]; Hypoxia, 25 μM, pre-treated for 24 hours before the 24 hour long assay
  invasiveness (pre-treatment): significantly less invasive
MDA-MB-231 cells [3]; Hypoxia, 25 μM, pre-treated for 48 hours before the 24 hour long assay
  invasiveness (pre-treatment): significantly less invasive
MDA-MB-231 cells [3]; Hypoxia, 50 μM
  INVASIVENESS (no pretreatment): reduced the migration of the cells
MDA-MB-231 cells [3]; Hypoxia, 50 μM, listed as RANOLAZINE
  INVASIVENESS (no pretreatment): decreased
MDA-MB-231 cells [3]; Hypoxia, 300 μM
  INVASIVENESS (no pretreatment): reduced the migration of the cells
MDA-MB-231 cells [3]; Hypoxia, 300 μM, listed as RANOLAZINE
  INVASIVENESS (no pretreatment): decreased
MDA-MB-231 cells [3]; Normoxia, 10 μM
  INVASIVENESS (no pretreatment): reduced the migration of the cells
MDA-MB-231 cells [3]; [6]
  INVASIVENESS (no pretreatment): decreased
MDA-MB-231 cells [3]; Normoxia, 20 μM
  INVASIVENESS (no pretreatment): reduced the migration of the cells
MDA-MB-231 cells [3]; Normoxia, 20 μM, listed as RANOLAZINE
  INVASIVENESS (no pretreatment): decreased
MDA-MB-231 cells [3]; Normoxia, 50 μM
  INVASIVENESS (no pretreatment): not statistically significant
MDA-MB-231 cells [3]; Normoxia, 50 μM, listed as RANOLAZINE
  INVASIVENESS (no pretreatment): no effect
MDA-MB-231 cells [3]; Normoxia, 300 μM
  INVASIVENESS (no pretreatment): reduced the migration of the cells
MDA-MB-231 cells [3]; Normoxia, 300 μM, listed as RANOLAZINE
  INVASIVENESS (no pretreatment): decreased
MDA-MB-231 cells [3]; higher concentrations tested, TTX 10 μmol
  potency on invasiveness compared with positive control TTX: more potent than the toxin (TTX)
MDA-MB-231 cells [4]; 1 μM
  CELL VIABILITY: no effect
MDA-MB-231 cells [4]; 10 μM
  CELL VIABILITY: no effect
MDA-MB-231 cells [4]; 100 μM
  CELL VIABILITY: no effect
